Data on 17 compounds can be found in patent publication EP0297610A1, “N-[(2,6-disubstituted)phenyl]-urea and carbamate inhibitors of acyl-CoA:cholesterol acyl-transferase” (WARNER-LAMBERT COMPANY, priority 1987, dated 1989).

Assay [1] concerns the target acyl-CoA:cholesterol acyltransferase (ACAT). Kind of assay: In vitro ACAT inhibition: formation of radiolabeled cholesterol oleate from radiolabeled oleic acid in rabbit intestinal microsomes. The settings on record: tissue preparation containing rabbit intestinal microsomes, read-out: IC₅₀. In kind it is biochemical.
Description: The test assesses the ability of a test compound to inhibit the acylation of cholesterol by oleic acid by measuring the amount of radiolabeled cholesterol oleate formed from radiolabeled oleic acid in a tissue preparation containing rabbit intestinal microsomes.
In the next assay the test system is male Sprague-Dawley rats. Kind of assay: In vivo screen PCC: total blood cholesterol in cholesterol-fed rats. The following applies: one week; for % Change: change of total blood cholesterol vs control (181 mg/dl), 0.05% test drug in diet, rats; for Total Blood Cholesterol: male Sprague-Dawley rats, 0.05% test drug admixed into diet with 5.5% peanut oil, 1.5% cholesterol, 0.3%-0.5% cholic acid, Control = 181. From the text:
In an in vivo screen, designated PCC, male Sprague-Dawley rats (approximately 200 g body weight) are randomly divided into groups and provided ad libidum a regular chow diet (Purina No. 5002, Ralston Purina Co., 711 West Fuesser Road, Mascoutah, Illinois, 62224, USA), supplemented with 5.5% peanut oil, 1.5% choles-terol, and 0.3%-0.5% cholic acid, together with 0.05% of the test drug which is admixed into the diet. After one week the animals are etherized and a blood sample is taken from the heart and mixed with 0.14% ethylene-diamine tetraacetic acid (EDTA) to measure the total cholesterol.

Turning to `CCCCCCCCCCCCCCNC(=O)Nc1c(CC)cccc1C(C)C` [Example 1, N-[2-Ethyl-6-(1-methylethyl)-phenyl]-N′-tetradecylurea], the IC50 in assay [1] is 19 nM. Moreover, in the assay with male Sprague-Dawley rats, the “% Change” value is -41% and the “Total Blood Cholesterol” value is given as 106 (Control = 181) mg/dl.
In the same order, the values of `CCCCCCCC/C=C\CCCCCCCCNC(=O)Nc1c(CC)cccc1C(C)C` [Example 2, (Z)-N-[2-Ethyl-6-(1-methylethyl)-phenyl]-N′-9-octadecenylurea] are 37 nM, -41% and 107 (Control = 181) mg/dl.
`CCCCCCCC/C=C\CCCCCCCCNC(=S)Nc1c(C)cccc1C` [Example 3, (Z)-N-(2,6-Dimethylphenyl)-N′-9-octadecenylthiourea]: in assay [1], the IC50 came to 10000 nM.
On the same count and under the same terms, to `CCCCCCCC/C=C\CCCCCCCCNC(=O)Nc1c(C)cccc1C` [Example 4, (Z)-N-(2,6-Dimethylphenyl)-N′-9-octadecenylurea] belongs 160 nM; to `CCCCCCCC/C=C\CCCCCCCCNC(=O)Nc1c(C)cccc1Cl` [Example 5, (Z)-N-(2-Chloro-6-methylphenyl)-N′-9-octadecenylurea], 180 nM.
On the same count and under the same terms, to `CCCCCCCC/C=C\CCCCCCCCNC(=O)Nc1c(Cl)cccc1Cl` [Example 6, (Z)-N-(2,6-Dichlorophenyl)-N′-9-octadecenylurea] belongs 400 nM.
On the same count and under the same terms, with `CCCCCCCCCCCCCCNC(=O)Nc1c(C)cccc1Cl` [Example 7, N-(2-Chloro-6-methylphenyl)-N′-tetradecylurea] the figure was 27 nM.
Turning to `CCCCCCCCCCCCCCNC(=O)Nc1c(CC)cccc1CC` [Example 8, N-(2,6-Diethylphenyl)-N′-tetra-decylurea], the IC50 in assay [1] came out at 21 nM.
With `CCCCCCCCCCCCCCCCCCNC(=O)Nc1c(C)cccc1Cl` [Example 10, N-(2-Chloro-6-methylphenyl)-N′-octadecylurea], the IC50 in assay [1] was 1100 nM.
Still for that read-out and setting: to `CCCCCCCCCCCCCCCCCCNC(=O)Nc1c(C(C)C)cccc1C(C)C` [Example 11, N-[2,6-bis(1-Methylethyl)phenyl]-N′-octadecylurea] belongs 48 nM.
Same read-out and setting: with `CCCCCCCCCCCCCCNC(=S)Nc1c(CC)cccc1CC` [Example 12, N-(2,6-Diethylphenyl)-N′-tetradecylthiourea] the figure was 420 nM; with `CCCCCCCCCCNC(=O)Nc1c(C(C)C)cccc1C(C)C` [Example 15, N-[2,6-bis(1-Methylethyl)phenyl]-N′-decylurea], 56 nM.
The same measure, in the same setting: to `CCCCCCCCCCNC(=O)Nc1c(C)cccc1C(C)C` [Example 17, N-Decyl-N′-[2-methyl-6-(l-methylethyl)-phenyl]urea.] belongs 210 nM; to `CCCCCCCCCCNC(=O)Nc1c(C)cccc1C(C)(C)C` [Example 18, N-Decyl-N′-[2-(1,1-dimethylethyl)-6-methylphenyl]urea], 200 nM.
For the compound `CCCCCCCCCCC(C)(C)NC(=O)Nc1c(CC)cccc1CC` [Example 19, N-(2,6-Diethylphenyl)-N′-(1.1-dimethylundecyl)urea], the IC50 in assay [1] was 52 nM. In the assay with male Sprague-Dawley rats, the “% Change” value is -60% and the “Total Blood Cholesterol” value was 73 (Control = 181) mg/dl.
In the case of `CCCCCCCCCCC(C)(C)NC(=O)Nc1c(C(C)C)cccc1C(C)C` [Example 20, N-[2.6-bis(1-Methylethyl)phenyl]-N′-(1,1-dimethylundecyl)urea], in assay [1], the IC50 worked out at 45 nM.
Same read-out and setting: with `CCCCCCCCCCC1(NC(=O)Nc2c(CC)cccc2CC)CCCC1` [Example 21, N-(1-Decylcyclopentyl)-N′-(2.6-diethylphenyl)urea] the figure was 100 nM.
